Data reported in ChEMBL document CHEMBL5678809, “Preclinical characterization of GLPG0634, a selective inhibitor of JAK1, for the treatment of inflammatory diseases” (J Immunol, 2013).
Calls of active or inactive are those of the source. The calls are words filed in the database; no cut-off is given here.

Legend:
Homo sapiens = species: Homo sapiens; experiment: Inhibition of PDGFR (unknown origin) at 1 uM relative to control
[1] = target: Protein-tyrosine kinase 6 (Homo sapiens) (UniProt Q13882); experiment: Inhibition of BRK (unknown origin) at 1 uM relative to control
[2] = target: Mitogen-activated protein kinase 1 (Homo sapiens) (UniProt P28482); experiment: Inhibition of MAPK1 (unknown origin) at 1 uM relative to control
[3] = target: MAP kinase-interacting serine/threonine-protein kinase 2 (Homo sapiens, UniProt Q9HBH9); experiment: Inhibition of MNK2 (unknown origin)
[4] = target: Platelet-derived growth factor receptor alpha (Homo sapiens) (UniProt P16234); experiment: Inhibition of PDGFR2 (unknown origin) at 1 uM relative to control
[5] = Half life in Sprague-Dawley rat at 1 mg/kg, iv measured upto 8 hrs by LC-MS analysis; assay type: ADME, organism-based; details: in vivo
[6] = target: Serine/threonine-protein kinase Nek11 (Homo sapiens) (UniProt Q8NG66); experiment: Inhibition of NEK11 (unknown origin) at 1 uM relative to control
[7] = target: Tyrosine-protein kinase FRK (Homo sapiens) (UniProt P42685); experiment: Inhibition of PTK5 (unknown origin) at 1 uM relative to control
[8] = target: Mitogen-activated protein kinase 11 (Homo sapiens) (UniProt Q15759); experiment: Inhibition of SAPK2b (unknown origin) at 1 uM relative to control
Chain of Mitogen-activated protein kinase 11 (Homo sapiens) (Q15759 whole entry): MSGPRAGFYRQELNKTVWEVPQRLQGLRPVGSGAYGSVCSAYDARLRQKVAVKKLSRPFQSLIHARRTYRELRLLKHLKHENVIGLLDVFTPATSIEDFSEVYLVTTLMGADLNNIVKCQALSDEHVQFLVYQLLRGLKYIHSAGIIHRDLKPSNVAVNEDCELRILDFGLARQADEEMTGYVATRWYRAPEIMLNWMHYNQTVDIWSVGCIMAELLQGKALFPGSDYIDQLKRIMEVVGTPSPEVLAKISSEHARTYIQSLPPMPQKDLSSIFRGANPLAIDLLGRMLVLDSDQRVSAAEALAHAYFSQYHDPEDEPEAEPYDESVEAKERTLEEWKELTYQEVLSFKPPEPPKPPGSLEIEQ

[9] = Tmax in CD-1 mouse at 5 mg/kg, po measured upto 24 hrs by LC-MS analysis; assay type: ADME, organism-based; details: in vivo
Mus musculus [10] = experiment: Antiarthritic activity against collagen-induced arthritis DBA/1J mouse model assessed as reduction in IL-6 expression at 50 mg/kg, po measured for 4 hrs; assay type: functional, organism-based
[11] = target: Focal adhesion kinase 1 (Homo sapiens) (UniProt Q05397); experiment: Inhibition of FAK (unknown origin) at 1 uM relative to control
[12] = target: Mitogen-activated protein kinase kinase kinase kinase 4 (Homo sapiens, UniProt O95819); experiment: Inhibition of MAP4K4 (unknown origin)
[13] = target: Serine/threonine-protein kinase STK11 (Homo sapiens) (UniProt Q15831); experiment: Inhibition of LKB1 (unknown origin) at 1 uM relative to control
Chain of Serine/threonine-protein kinase STK11 (Homo sapiens) (Q15831 whole entry): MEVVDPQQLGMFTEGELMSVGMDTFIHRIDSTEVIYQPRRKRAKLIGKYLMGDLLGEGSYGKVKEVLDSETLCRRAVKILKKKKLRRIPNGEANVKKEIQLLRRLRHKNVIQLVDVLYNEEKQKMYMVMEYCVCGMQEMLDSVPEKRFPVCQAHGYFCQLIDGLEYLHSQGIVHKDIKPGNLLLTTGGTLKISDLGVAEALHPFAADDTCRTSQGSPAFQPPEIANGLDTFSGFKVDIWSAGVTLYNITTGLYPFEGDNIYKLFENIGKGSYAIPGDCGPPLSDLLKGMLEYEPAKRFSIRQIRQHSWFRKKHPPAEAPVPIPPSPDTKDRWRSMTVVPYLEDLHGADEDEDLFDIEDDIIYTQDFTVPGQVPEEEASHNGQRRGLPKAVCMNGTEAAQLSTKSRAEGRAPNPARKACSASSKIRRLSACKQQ

[14] = target: Dual specificity mitogen-activated protein kinase kinase 6 (Homo sapiens) (UniProt P52564); experiment: Inhibition of MKK6 (unknown origin) at 1 uM relative to control
Mus musculus [15] = experiment: Antiarthritic activity against collagen-induced arthritis DBA/1J mouse model assessed as reduction in MMP13 expression at 50 mg/kg, po measured for 4 hrs; assay type: functional, organism-based
[16] = target: Tyrosine-protein kinase receptor UFO (Homo sapiens) (UniProt P30530); experiment: Inhibition of Axl (unknown origin) at 1 uM relative to control
Chain of Tyrosine-protein kinase receptor UFO (Homo sapiens) (P30530 whole entry): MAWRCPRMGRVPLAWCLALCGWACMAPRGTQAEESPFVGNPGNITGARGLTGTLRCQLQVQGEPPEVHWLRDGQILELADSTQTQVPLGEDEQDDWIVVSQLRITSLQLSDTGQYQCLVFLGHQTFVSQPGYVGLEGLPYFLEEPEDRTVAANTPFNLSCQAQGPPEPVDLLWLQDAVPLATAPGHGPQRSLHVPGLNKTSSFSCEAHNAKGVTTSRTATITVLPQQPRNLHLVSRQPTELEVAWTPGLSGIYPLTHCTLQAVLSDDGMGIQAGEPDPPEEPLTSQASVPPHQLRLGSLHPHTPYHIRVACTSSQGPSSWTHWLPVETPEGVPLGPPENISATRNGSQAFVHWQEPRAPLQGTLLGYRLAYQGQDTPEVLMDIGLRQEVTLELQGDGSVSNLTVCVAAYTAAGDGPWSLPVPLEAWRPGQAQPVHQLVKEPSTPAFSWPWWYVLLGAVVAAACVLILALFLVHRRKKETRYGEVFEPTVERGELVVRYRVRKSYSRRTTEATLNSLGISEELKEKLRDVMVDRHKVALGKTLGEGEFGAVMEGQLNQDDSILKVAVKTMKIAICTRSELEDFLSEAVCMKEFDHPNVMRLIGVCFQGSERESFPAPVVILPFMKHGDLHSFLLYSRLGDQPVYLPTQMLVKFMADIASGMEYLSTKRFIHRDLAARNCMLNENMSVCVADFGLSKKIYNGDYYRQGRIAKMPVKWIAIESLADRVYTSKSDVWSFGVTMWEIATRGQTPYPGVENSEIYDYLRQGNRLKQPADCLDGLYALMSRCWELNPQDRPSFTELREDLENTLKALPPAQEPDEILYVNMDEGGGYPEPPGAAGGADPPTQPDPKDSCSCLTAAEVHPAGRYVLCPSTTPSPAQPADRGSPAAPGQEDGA

Misshapen-like kinase 1 = Misshapen-like kinase 1 (Homo sapiens, UniProt Q8N4C8); experiment: Inhibition of MINK (unknown origin)
Mus musculus [17] = experiment: Antiarthritic activity against collagen-induced arthritis DBA/1J mouse model assessed as MIP-1beta level in serum at 50 mg/kg, po measured for 4 hrs by luminex analysis (reference value: 203.4= +/- 20.8 ng/ml); assay type: functional
[18] = AUC (0 to 24 hrs) in Sprague-Dawley rat at 1 mg/kg, iv measured upto 8 hrs by LC-MS analysis; assay type: ADME, organism-based; details: in vivo
[19] = target: Calcium/calmodulin-dependent protein kinase type IV (Homo sapiens) (UniProt Q16566); experiment: Inhibition of CaMK4 (unknown origin) at 1 uM relative to control
[20] = target: Angiopoietin-1 receptor (Homo sapiens) (UniProt Q02763); experiment: Inhibition of Tie2 (unknown origin) at 1 uM relative to control
[21] = target: Insulin receptor (Homo sapiens) (UniProt P06213); experiment: Inhibition of IR (unknown origin) at 1 uM relative to control
Mus musculus [22] = experiment: Antiarthritic activity against collagen-induced arthritis DBA/1J mouse model assessed as MCP-5 level in serum at 50 mg/kg, po measured for 4 hrs by luminex analysis (reference value: 62.8 +/- 12.4 ng/ml); assay type: functional
[23] = target: Muscle, skeletal receptor tyrosine-protein kinase (Homo sapiens) (UniProt O15146); experiment: Inhibition of MuSK (unknown origin) at 1 uM relative to control
[24] = target: SRSF protein kinase 2 (Homo sapiens) (UniProt P78362); experiment: Inhibition of SRPK2 (unknown origin) at 1 uM relative to control
Mus musculus [25] = experiment: Antiarthritic activity against collagen-induced arthritis DBA/1J mouse model assessed as SCF level in serum at 50 mg/kg, po measured for 4 hrs by luminex analysis (reference value: 672.4 +/- 242.2 ng/ml); assay type: functional
[26] = target: Tyrosine-protein kinase Fgr (Homo sapiens) (UniProt P09769); experiment: Inhibition of Fgr (unknown origin) at 1 uM relative to control
Chain of Tyrosine-protein kinase Fgr (Homo sapiens) (P09769 2-529 limits assumed): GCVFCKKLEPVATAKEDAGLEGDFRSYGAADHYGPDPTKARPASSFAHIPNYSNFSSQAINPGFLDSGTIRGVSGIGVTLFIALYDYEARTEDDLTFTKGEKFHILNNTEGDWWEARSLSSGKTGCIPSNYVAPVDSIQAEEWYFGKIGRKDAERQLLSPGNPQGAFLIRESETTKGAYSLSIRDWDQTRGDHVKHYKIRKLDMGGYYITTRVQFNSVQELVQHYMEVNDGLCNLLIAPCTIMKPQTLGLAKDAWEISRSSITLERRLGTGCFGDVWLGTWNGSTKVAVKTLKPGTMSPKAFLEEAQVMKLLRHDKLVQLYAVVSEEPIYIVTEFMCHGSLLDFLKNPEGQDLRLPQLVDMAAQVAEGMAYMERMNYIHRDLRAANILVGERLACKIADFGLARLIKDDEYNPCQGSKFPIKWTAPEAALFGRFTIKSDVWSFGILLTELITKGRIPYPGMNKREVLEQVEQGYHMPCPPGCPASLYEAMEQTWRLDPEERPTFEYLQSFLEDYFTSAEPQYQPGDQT

Mus musculus [27] = experiment: Antiarthritic activity against collagen-induced arthritis DBA/1J mouse model assessed as reduction in IL-6 level in serum at 50 mg/kg, po measured for 4 hrs by luminex analysis; assay type: functional, organism-based
[28] = Volume of distribution at steady state in Sprague-Dawley rat at 1 mg/kg, iv measured upto 8 hrs by LC-MS analysis; assay type: ADME, organism-based; details: in vivo, read-out: Vdss
[29] = target: Testis-specific serine/threonine-protein kinase 2 (Homo sapiens) (UniProt Q96PF2); experiment: Inhibition of TSSK2 (unknown origin) at 1 uM relative to control
Mus musculus [30] = experiment: Antiarthritic activity against collagen-induced arthritis DBA/1J mouse model assessed as reduction in Mx1 expression in paw at 50 mg/kg, po measured for 2 weeks by RT-PCR analysis; assay type: functional, organism-based
[31] = target: Eukaryotic elongation factor 2 kinase (Homo sapiens) (UniProt O00418); experiment: Inhibition of eEF2K (unknown origin) at 1 uM relative to control
Chain of Eukaryotic elongation factor 2 kinase (Homo sapiens) (O00418 whole entry): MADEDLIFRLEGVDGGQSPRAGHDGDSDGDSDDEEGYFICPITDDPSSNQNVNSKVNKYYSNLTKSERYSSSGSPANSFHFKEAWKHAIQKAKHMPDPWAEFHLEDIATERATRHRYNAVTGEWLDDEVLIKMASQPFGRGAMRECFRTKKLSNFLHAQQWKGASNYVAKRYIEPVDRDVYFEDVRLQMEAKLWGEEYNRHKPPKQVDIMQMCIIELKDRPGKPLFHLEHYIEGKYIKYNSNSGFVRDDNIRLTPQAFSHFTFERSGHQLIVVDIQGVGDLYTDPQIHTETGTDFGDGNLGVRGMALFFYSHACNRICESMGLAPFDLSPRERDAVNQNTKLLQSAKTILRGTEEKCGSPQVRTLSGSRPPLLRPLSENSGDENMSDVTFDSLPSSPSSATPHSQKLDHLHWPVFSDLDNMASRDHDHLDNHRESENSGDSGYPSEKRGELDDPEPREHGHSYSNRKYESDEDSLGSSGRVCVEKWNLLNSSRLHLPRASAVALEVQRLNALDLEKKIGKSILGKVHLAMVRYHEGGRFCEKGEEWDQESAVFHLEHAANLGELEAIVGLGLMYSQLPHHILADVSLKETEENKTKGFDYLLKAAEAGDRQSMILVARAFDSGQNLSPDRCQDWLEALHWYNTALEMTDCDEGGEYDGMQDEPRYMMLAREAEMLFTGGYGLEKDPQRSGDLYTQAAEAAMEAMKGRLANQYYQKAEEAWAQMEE

[32] = target: Serine/threonine-protein kinase TBK1 (Homo sapiens, UniProt Q9UHD2); experiment: Inhibition of TBK1 (unknown origin)
[33] = Oral bioavailability in Sprague-Dawley rat at 5 mg/kg measured upto 24 hrs by LC-MS analysis; assay type: ADME, organism-based; details: in vivo
[34] = target: Receptor-type tyrosine-protein kinase FLT3 (Homo sapiens, UniProt P36888); experiment: Inhibition of Flt3 (unknown origin)
[35] = target: Mitogen-activated protein kinase 14 (Homo sapiens, UniProt Q16539); experiment: Inhibition of MAPK14 (unknown origin)
[36] = Oral bioavailability in CD-1 mouse at 5 mg/kg measured upto 24 hrs by LC-MS analysis; assay type: ADME, organism-based; details: in vivo
[37] = target: Serine/threonine-protein kinase BRSK1 (Homo sapiens) (UniProt Q8TDC3); experiment: Inhibition of BrSK1 (unknown origin) at 1 uM relative to control
Chain of Serine/threonine-protein kinase BRSK1 (Homo sapiens) (Q8TDC3 whole entry): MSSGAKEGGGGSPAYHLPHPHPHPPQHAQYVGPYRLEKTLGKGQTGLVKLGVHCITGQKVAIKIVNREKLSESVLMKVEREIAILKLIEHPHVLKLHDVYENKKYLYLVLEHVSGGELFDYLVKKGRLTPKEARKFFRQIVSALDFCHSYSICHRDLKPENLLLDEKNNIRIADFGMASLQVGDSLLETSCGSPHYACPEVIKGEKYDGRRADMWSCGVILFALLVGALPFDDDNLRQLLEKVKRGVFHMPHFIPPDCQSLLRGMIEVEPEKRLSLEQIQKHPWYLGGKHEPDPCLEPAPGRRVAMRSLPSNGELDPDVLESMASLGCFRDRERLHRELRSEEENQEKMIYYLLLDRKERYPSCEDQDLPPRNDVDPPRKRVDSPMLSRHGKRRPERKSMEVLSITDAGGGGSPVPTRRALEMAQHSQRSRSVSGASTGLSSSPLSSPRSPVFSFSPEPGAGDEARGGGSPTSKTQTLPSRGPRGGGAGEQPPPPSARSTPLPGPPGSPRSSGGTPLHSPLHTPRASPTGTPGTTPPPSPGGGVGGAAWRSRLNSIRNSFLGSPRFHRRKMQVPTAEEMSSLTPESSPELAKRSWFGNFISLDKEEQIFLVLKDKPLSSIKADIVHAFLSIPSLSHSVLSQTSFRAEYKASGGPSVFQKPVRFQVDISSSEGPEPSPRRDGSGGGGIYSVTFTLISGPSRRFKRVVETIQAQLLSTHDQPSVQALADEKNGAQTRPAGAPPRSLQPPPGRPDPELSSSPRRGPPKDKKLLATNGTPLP

[38] = target: SRSF protein kinase 3 (Homo sapiens) (UniProt Q9UPE1); experiment: Inhibition of MSSK1 (unknown origin) at 1 uM relative to control
[39] = target: Vascular endothelial growth factor receptor 2 (Homo sapiens) (UniProt P35968); experiment: Inhibition of KDR (unknown origin) at 1 uM relative to control
Chain of Vascular endothelial growth factor receptor 2 (Homo sapiens) (P35968 whole entry): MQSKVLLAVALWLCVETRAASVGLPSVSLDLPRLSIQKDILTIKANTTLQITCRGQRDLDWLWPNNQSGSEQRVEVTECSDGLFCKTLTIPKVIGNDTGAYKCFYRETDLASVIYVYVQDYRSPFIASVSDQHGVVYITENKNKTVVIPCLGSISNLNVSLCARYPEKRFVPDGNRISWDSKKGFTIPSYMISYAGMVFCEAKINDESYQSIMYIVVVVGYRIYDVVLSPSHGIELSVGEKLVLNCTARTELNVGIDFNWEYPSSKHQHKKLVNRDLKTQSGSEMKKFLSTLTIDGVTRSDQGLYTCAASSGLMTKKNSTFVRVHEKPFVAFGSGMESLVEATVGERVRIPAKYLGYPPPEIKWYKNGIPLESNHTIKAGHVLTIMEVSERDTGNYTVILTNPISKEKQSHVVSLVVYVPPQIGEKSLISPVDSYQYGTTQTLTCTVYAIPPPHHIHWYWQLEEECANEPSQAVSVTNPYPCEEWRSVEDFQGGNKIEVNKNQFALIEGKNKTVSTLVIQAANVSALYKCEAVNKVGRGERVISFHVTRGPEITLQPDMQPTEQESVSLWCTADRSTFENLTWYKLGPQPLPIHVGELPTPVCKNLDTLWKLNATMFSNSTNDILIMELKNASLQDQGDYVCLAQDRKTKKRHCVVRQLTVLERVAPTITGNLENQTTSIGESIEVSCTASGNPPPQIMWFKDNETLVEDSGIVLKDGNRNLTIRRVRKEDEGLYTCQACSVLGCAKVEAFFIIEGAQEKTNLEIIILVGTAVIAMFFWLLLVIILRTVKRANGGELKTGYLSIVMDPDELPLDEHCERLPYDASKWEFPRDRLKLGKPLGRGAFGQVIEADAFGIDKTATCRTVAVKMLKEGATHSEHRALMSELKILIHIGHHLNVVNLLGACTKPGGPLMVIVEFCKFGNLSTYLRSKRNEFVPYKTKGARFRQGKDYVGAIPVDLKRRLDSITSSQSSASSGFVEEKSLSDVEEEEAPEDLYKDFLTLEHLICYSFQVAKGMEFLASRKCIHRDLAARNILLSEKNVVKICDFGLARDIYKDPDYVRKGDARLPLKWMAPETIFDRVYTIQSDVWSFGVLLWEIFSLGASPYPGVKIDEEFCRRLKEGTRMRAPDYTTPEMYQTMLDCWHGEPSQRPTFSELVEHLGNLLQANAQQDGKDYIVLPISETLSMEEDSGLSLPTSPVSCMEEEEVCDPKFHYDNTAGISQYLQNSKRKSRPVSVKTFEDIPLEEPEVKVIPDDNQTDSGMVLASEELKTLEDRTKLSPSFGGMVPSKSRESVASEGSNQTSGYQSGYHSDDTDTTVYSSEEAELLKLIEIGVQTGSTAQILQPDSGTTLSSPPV

O=C(Nc1nc2cccc(-c3ccc(CN4CCS(=O)(=O)CC4)cc3)n2n1)C1CC1 [FILGOTINIB]
inhibition (Homo sapiens): 2% | inhibition [1]: -2% | inhibition [2]: 1% | IC50 [3]: > 10 µM | inhibition [4]: -10% | half-life [5]: 1.6 h | inhibition [6]: -2% | inhibition [7]: -6% | inhibition [8]: -4% | Tmax [9]: 0.5 h | Activity (Mus musculus [10]): Active | inhibition [11]: 23% | IC50 [12]: > 10 µM | inhibition [13]: -5% | inhibition [14]: -6% | Activity (Mus musculus [15]): Active | inhibition [16]: -5% | IC50 (Misshapen-like kinase 1): > 10 µM | Activity (Mus musculus [17]): 143 ng/mL | AUC [18]: 739 ng·h/mL | inhibition [19]: -5% | inhibition [20]: -2% | inhibition [21]: -1% | Activity (Mus musculus [22]): 36.4 ng/mL | inhibition [23]: -3% | inhibition [24]: -10% | Activity (Mus musculus [25]): 422.6 ng/mL | inhibition [26]: 5% | Activity (Mus musculus [27]): Active | Vd [28]: 1.8 L/kg | inhibition [29]: -5% | Activity (Mus musculus [30]): Active | inhibition [31]: -4% | IC50 [32]: 1.79 µM | bioavailability [33]: 45% | IC50 [34]: 0.338 µM | IC50 [35]: > 10 µM | bioavailability [36]: ~100% | inhibition [37]: -5% | inhibition [38]: 2% | inhibition [39]: 28%
